Test results as given in patent publication US20260015350A1, “AZAQUINAZOLINE PAN-KRAS INHIBITORS” (Mirati Therapeutics, Inc., priority 2022, published 2026).

Key:
[1] = system: KRas-mediated phosphorylation of ERK in AsPC-1 cells; test: Inhibition of KRas-mediated phosphorylation of ERK (Cisbio HTRF pERK), AsPC-1 cells; type: cell-based; settings: Homo sapiens, ASPC1, AsPC-1 cells; HTRF pERK
Description: (§1) Inhibition of KRas Phosphorylation of ERK (HTRF) by Exemplary Compounds of Formula (I) Cisbio HTRF Advanced PERK Assay Catalog #64[…] […] Add 10 mL of media to stop trypsinizing. Pipette the cells into a conical bottom 50 mL centrifuge tube and centrifuge 5 min×1000 rpm. […] Re-suspend the cell pellet in media, take a cell count, and then adjust the cell density using fresh media. […] Seed 6,000 cells into cell culture plate with 50 μL media. […] Use Tecan to complete the compound addition. Compounds start from 10 uM top, 3-fold dilution, and 10 doses. The final DMSO concentration is 0.8%. Dispensed 0.2 uM Trametinib as Min control. […] Incubate cell plate for 3 hrs in the incubator. […] Dilute 1 volume of 4× lysis buffer with 3 volumes of deionized water. […] Keep lysis buffer on the ice. […] At the end of the compound treatment, flick-off the media. […] Add 35 μL of lysis buffer per well using a Multidrop Combi. Then place on a plate agitator shaking at 300 rpm at 4° C. for 40 mins. […] Make up the HTRF antibody buffer. For each assay plate, mix 50 μL of d2-conjugate antibody with 950 μL of detection buffer. Similarly, mix 50 μL of Cryptate antibody with 950 μL of detection buffer. Then mix the two diluted antibodies together. […] Dispense 3.4 μL the antibody buffer to wells of an empty assay plate. Seal the plate and centrifuge plate 30 sec×1000 rpm. […] At the end of the 4° C. lysis, centrifuge the lysate plates 3 mins×1500 rpm. […] Use the Bravo to transfer 13.6 μL of lysate from cell culture plate to assay plate. Then incubate assay plate for 2 hrs at room temperature. 8. At the end of incubation, read plate on the Envision after centrifuging plate 30 sec×1000 rpm.

[2] = system: KRas-mediated phosphorylation of ERK in H727 cells; test: Inhibition of KRas-mediated phosphorylation of ERK (Cisbio HTRF pERK), H727 cells; type: cell-based; settings: Homo sapiens, NCI-H727, H727 cells; HTRF pERK
Description: as §1

Compound	IC50 [1] [nM]	IC50 [2] [nM]
CCc1c(F)ccc2cc(O)cc(-c3ncc4c(N5CCCC(C6CCNC6=O)C5)nc(OC[C@@]56CCCN5C[C@H](F)C6)nc4c3F)c12 (stereo partly drawn) [Example 616, 3-(1-(7-(8-ethyl-7-fluoro-3-hydroxynaphthalen-1-yl)-8-fluoro-2-(((2R,7aS)-2-fluorohexahydro-1H-pyrrolizin-7a-yl)methoxy)pyrido[4,3-d]pyrimidin-4-yl)piperidin-3-yl)pyrrolidin-2-one]	3620	1140
CCc1c(F)ccc2cc(O)cc(-c3ncc4c(N5CC6OCCN(C(C)=O)C6C5)nc(OC[C@@]56CCCN5C[C@H](F)C6)nc4c3F)c12 (stereo partly drawn) [Example 623, 1-(6-(7-(8-ethyl-7-fluoro-3-hydroxynaphthalen-1-yl)-8-fluoro-2-(((2R,7aS)-2-fluorotetrahydro-1H-pyrrolizin-7a(5H)-yl)methoxy)pyrido[4,3-d]pyrimidin-4-yl)hexahydropyrrolo[3,4-b][1,4]oxazin-4(4aH)-yl) ethan-1-one]	> 10000	> 10000
CCc1c(F)ccc2cc(O)cc(-c3ncc4c(NCc5cc(C(=O)N(C)C)nn5CCC#N)nc(OC[C@@]56CCCN5C[C@H](F)C6)nc4c3F)c12 [Example 669, 1-(2-cyanoethyl)-5-(((7-(8-ethyl-7-fluoro-3-hydroxynaphthalen-1-yl)-8-fluoro-2-(((2R,7aS)-2-fluorohexahydro-1H-pyrrolizin-7a-yl)methoxy)pyrido[4,3-d]pyrimidin-4-yl)amino)methyl)-N,N-dimethyl-1H-pyrazole-3-carboxamide]	> 10000	4510
CCc1c(F)ccc2cc(O)cc(-c3ncc4c(NCc5cc(C(=O)N(C)C)nn5CC5COC5)nc(OC[C@@]56CCCN5C[C@H](F)C6)nc4c3F)c12 [Example 683, 5-(((7-(8-ethyl-7-fluoro-3-hydroxynaphthalen-1-yl)-8-fluoro-2-(((2R,7aS)-2-fluorohexahydro-1H-pyrrolizin-7a-yl)methoxy)pyrido[4,3-d]pyrimidin-4-yl)amino)methyl)-N,N-dimethyl-1-(oxetan-3-ylmethyl)-1H-pyrazole-3-carboxamide]	> 10000	> 10000
CCc1c(F)ccc2cc(O)cc(-c3ncc4c(NCc5cc(C(=O)N(C)C)n(CC6COC6)n5)nc(OC[C@@]56CCCN5C[C@H](F)C6)nc4c3F)c12 [Example 684A, 3-(((7-(8-ethyl-7-fluoro-3-hydroxynaphthalen-1-yl)-8-fluoro-2-(((2R,7aS)-2-fluorohexahydro-1H-pyrrolizin-7a-yl)methoxy)pyrido[4,3-d]pyrimidin-4-yl)amino)methyl)-N,N-dimethyl-1-(oxetan-3-ylmethyl)-1H-pyrazole-5-carboxamide]	> 10000	> 10000
CCc1c(F)ccc2cc(O)cc(-c3ncc4c(NCc5cc(C(=O)N(C)C)n(C6CS(=O)(=O)C6)n5)nc(OC[C@@]56CCCN5C[C@H](F)C6)nc4c3F)c12 [Example 692, 1-(1,1-dioxidothietan-3-yl)-3-(((7-(8-ethyl-7-fluoro-3-hydroxynaphthalen-1-yl)-8-fluoro-2-(((2R,7aS)-2-fluorohexahydro-1H-pyrrolizin-7a-yl)methoxy)pyrido[4,3-d]pyrimidin-4-yl)amino)methyl)-N,N-dimethyl-1H-pyrazole-5-carboxamide]	> 10000	7030
CCc1c(F)ccc2cccc(-c3ncc4c(N5C[C@@H]6C[C@H](C5)[C@H](O)C6)nc(OC[C@@]56CCCN5C[C@H](F)C6)nc4c3F)c12 [Example 754, (1R,5R,6R)-3-(7-(8-ethyl-7-fluoronaphthalen-1-yl)-8-fluoro-2-(((2R,7aS)-2-fluorohexahydro-1H-pyrrolizin-7a-yl)methoxy)pyrido[4,3-d]pyrimidin-4-yl)-3-azabicyclo[3.2.1]octan-6-ol]	747	516
